Source: ChEMBL document CHEMBL5226293, “Biologically Significant and Recently Isolated Alkaloids from Endophytic Fungi” (2021)
Converted amounts (≈) assume the structure as drawn.

Legend:
[1] = tested on: Mycolicibacterium smegmatis; experiment: Antimycobacterial activity against Mycobacterium smegmatis assessed as growth inhibition incubated for 7 days by microplate alamar blue bioassay; type: functional; conditions: 168 h, time 7 day
[2] = tested on: Mycobacterium tuberculosis; experiment: Antimycobacterial activity against Mycobacterium tuberculosis assessed as growth inhibition incubated for 7 days by microplate alamar blue bioassay; type: functional; conditions: 168 h, time 7 day

O=C(/C=C/C=C/c1ccc2c(c1)OCO2)N1CCCCC1 [PIPERINE]
MIC [1]: 1.74 µg/mL (≈ 6.1 µM)
MIC [2]: 2.62 µg/mL (≈ 9.18 µM)
